Test results: US7253286B2, “Nitrogen-containing aromatic derivatives” (Eisai Co., Ltd, priority 2000, dated 2007)

What was measured:
VEGFR2 = target: T1, VEGFR2 (Homo sapiens, UniProt P35968); experiment: Inhibition against VEGFR2 kinase (receptor tyrosine kinase activity, HTRF method); format: biochemical; details: His6-VEGFR2 cytoplasmic domain, biotin-poly(GT) substrate, ATP, 30° C. 10 minutes, read-out: IC50 (concentration required for 50% inhibition of VEGFR2 kinase activity)
T1 construct: coding for the cytoplasmic domain, beginning with lysine 791 and including the termination codon; made in house; host or cells: Sf9 insect cells (baculovirus, pFastBacHis)
From the text: Measurement of Inhibition Against Receptor Tyrosine Kinase Activity
This assay is used to determine inhibition of a test substance on tyrosine kinase activity. DNA coding for the cytoplasmic domain of VEGFR2 is obtained by total cDNA synthesis (Edwards M, International Biotechnology Lab 5(3), 19–25, 1987) or by cloning. Expression in an appropriate expression system can produce a polypeptide with tyrosine kinase activity. […] For VEGFR2 (Genbank Accession No. L04947), the 1.7 kb DNA fragment described by Terman et al. (Oncogene, 6(9), 1677–1683, 1991), coding for the cytoplasmic domain, beginning with lysine 791 and including the termination codon, was isolated from a human placental cDNA library (purchased from Clontech Laboratories, Inc.) and cloned in a Baculovirus expression vector (pFastBacHis, purchased from GIBCO BRL) The recombinant construct was transfected into insect cells (Spondoptea frugiperda9 (Sf9)) to prepare a recombinant Baculovirus. (Instructions for preparation and use of recombinant Baculovirus maybe found in standard texts, such as “Bac-To-Bac Baculovirus Expression System” (GIBCO BRL).) The cytoplasmic fragment starting from lysine 398 (FGFR1, Genbank Accession No. X52833), the cytoplasmic fragment starting from lysine 558 (PDGFRβ, Genbank Accession No. M21616) or the cytoplasmic fragment starting from lysine 974 (HGFR, Genbank Accession No. J02958) may be cloned and expressed by the same method for use in assays for other tyrosine kinases. EGFR was purchased from Sigma Co. (Product No. E-2645).
For expression of the VEGFR2 tyrosine kinase, Sf9 cells were infected with the VEGFR2 recombinant virus and collected after 48 hours. The collected cells were rinsed with ice-cooled phosphate buffered saline (PBS) and then resuspended using 20 ml of ice-cooled Lysis Buffer (50 mM Tris-HCl (pH 8.5), 5 mM 2-mercaptoethanol, 100 mM KCl, 1 mM phenylmethylsulfonyl fluoride, 1% (v/v) NP-40) per 1.5×10^8 cells. The suspension was centrifuged at 12,000 rpm for 30 minutes at 4° C. and the supernatant was obtained.
The supernatant was added to a Ni—NTA agarose column (3 ml, purchased from Qiagen) equilibrated with Buffer A {20 mM Tris-HCl (pH 8.5), 5 mM 2-mercaptoethanol, 500 mM KCl, 20 mM imidazole, 10% (v/v) glycerol}. The column was washed with 30 ml of Buffer A, and then with 6 ml of Buffer B {20 mM Tris-HCl (pH 8.5), 5 mM 2-mercaptoethanol, 1M KCl, 10% (v/v) glycerol}, and finally with 6 ml of Buffer A. After washing, it was eluted with 6 ml of Buffer C {20 mM Tris-HCl (pH8.5), 5mM2-mercaptoethanol, 100 mMKCl, 100 mM imidazole, 10% (v/v) glycerol}. The eluate was placed on a dialysis membrane (purchased from Spectrum Laboratories) and dialyzed with a dialysis buffer {20 mM Tris-HCl (pH 7.5), 10% (v/v) glycerol, 1 mM dithiothreitol, 0.1 mM Na3VO4, 0.1 mM EGTA}. After dialysis, it was supplied for SDS-electrophoresis, and the recombinant protein (His6-VEGFR2, cytoplasmic domain of VEGFR2 fused with 6 histidine residues at the N-terminus) detected at a molecular weight of approximately 100 kDa with Coumassie Brilliant Blue staining was assayed using BSA (bovine serum albumin, purchased from Sigma Co.) as the standard substance, and stored at −80° C. until use. Using the same method for the cytoplasmic domains of FGFR1, PDGFRβ and HGFR yielded respective recombinant proteins fused with 6 histidine residues at the N-termini (His6-FGFR1, His6-PDGFRβ or His6-HGFR).
The tyrosine kinase reaction was conducted as follows. […]

[1] = test system: Human Umbilical Vein Endothelial Cells (HUVECs); experiment: Inhibition against sandwich tube formation by vascular endothelial cells in response to stimulation by VEGF; format: cell-based; details: HUVEC in collagen gel sandwich, stimulation by VEGF (25 ng/ml VEGF and 10 ng/ml EGF), 4th day, total tube length, read-out: IC50 (concentration required for 50% inhibition of tube formation)
Method in brief: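 HUVECs were sandwiched between collagen gel layers in serum-free medium with 25 ng/ml VEGF plus 10 ng/ml EGF, with test substance added above the gel at 37 °C. On day 4 tubes were MTT-stained and total tube length measured by image analysis. IC50 is the concentration halving tube length relative to no-compound wells.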

[2] = test system: Human Umbilical Vein Endothelial Cells (HUVECs); experiment: Inhibition against invasive tube formation by vascular endothelial cells in response to stimulation by angiogenic factor mixture; format: cell-based; design: key: the number of tubes formed in the absence of the test substance was designated as +++; scored on the 5-level scale of +++, ++, +, +/−, −; scored on the 5-level scale of +++, ++, +, +/−, −; scored on the 5-level scale of +++, ++, +, +/−, −; − was assigned if absolutely no tubes formed; details: HUVEC on fibrin gel, EGF/FGF2/VEGF/HGF/TNF-α mixture, 6th day, MTT staining; for number of tubes formed in the fibrin gel (score) at 0.01 μM: test substance 0.01 μM; for number of tubes formed in the fibrin gel (score) at 0.1 μM: test substance 0.1 μM; for number of tubes formed in the fibrin gel (score) at 1.0 μM: test substance 1.0 μM
Experimental: Inhibition Against Invasive Tube Formation by Vascular Endothelial Cells in Response to Stimulation by Angiogenic Factor Mixture
Human Umbilical Vein Endothelial Cells (HUVECs) were isolated according to a reported method (Shinseikagaku Jikken Koza [New Biochemistry Experiment Lectures], “Saibo Baiyo Gijutsu” [Cell Culturing Techniques], p.197–202), and were cultured in a 5% CO2 incubator (37° C.) using EGM-2 medium (purchased from Clonetics Corp.) until the cells reached confluency. After adding 0.4 ml of bovine fibrinogen (purchased from Sigma Co.) to the inner well of a Transwell culturing plate (purchased from Coster Inc.), it was hardened with 0.7 units/ml of thrombin (purchased from Sigma Co.). The HUVECs were recovered using trypsin-EDTA and then suspended in human endothelial serum free medium basal growth medium (hereinafter abbreviated as SFM, purchased from GIBCO BRL), and 0.4 ml of the cell suspension (1.4×10^5 cells) was seeded onto the hardened fibrin gel and cultured for approximately 4 hours in a 5% CO2 incubator (37° C.). After 4 hours, there was added to the outer chamber of the Transwell 1.5 ml of an SFM solution containing a mixture of angiogenic factors {10 ng/ml EGF (purchased from GIBCO BRL), 30 ng/ml FGF2 (purchased from GIBCO BRL), 75 ng/ml VEGF (purchased from Wako Pure Chemical Industries Co., Ltd.), 50 ng/ml HGF (purchased from R&D Co.) and 7.5 ng/ml TNF-α (purchased from Genzyme Corp.) [The concentrations of the angiogenic factors differed slightly according to the HUVEC lot.]} and a diluted test substance, and culturing was carried out in a 5% CO2 incubator (37° C.). On the 2nd and 4th days after adding the test substance, the medium was exchanged with 1.5 ml of freshly prepared SFM solution containing the angiogenic factor mixture and test substance. Upon aspirating off the culture supernatant in the inner well on the 6th day after the initial addition of the test substance, 0.4 ml of a 3.3 mg/ml MTT solution dissolved in PBS (purchased from Sigma Corp.) was added and culturing was performed for approximately 1 hour in a 5% CO2 incubator (37° C.). The number of tubes formed in the fibrin gel stained with MTT was scored based on microscope observation. Specifically, the number of tubes formed in the absence of the test substance was designated as +++, while − was assigned if absolutely no tubes formed. The number of tubes formed in the presence of the test substance was scored on the 5-level scale of +++, ++, +, +/−, − to evaluate the strength of inhibition of the test substance.

T1 sequence (P35968 786-1356 limits assumed): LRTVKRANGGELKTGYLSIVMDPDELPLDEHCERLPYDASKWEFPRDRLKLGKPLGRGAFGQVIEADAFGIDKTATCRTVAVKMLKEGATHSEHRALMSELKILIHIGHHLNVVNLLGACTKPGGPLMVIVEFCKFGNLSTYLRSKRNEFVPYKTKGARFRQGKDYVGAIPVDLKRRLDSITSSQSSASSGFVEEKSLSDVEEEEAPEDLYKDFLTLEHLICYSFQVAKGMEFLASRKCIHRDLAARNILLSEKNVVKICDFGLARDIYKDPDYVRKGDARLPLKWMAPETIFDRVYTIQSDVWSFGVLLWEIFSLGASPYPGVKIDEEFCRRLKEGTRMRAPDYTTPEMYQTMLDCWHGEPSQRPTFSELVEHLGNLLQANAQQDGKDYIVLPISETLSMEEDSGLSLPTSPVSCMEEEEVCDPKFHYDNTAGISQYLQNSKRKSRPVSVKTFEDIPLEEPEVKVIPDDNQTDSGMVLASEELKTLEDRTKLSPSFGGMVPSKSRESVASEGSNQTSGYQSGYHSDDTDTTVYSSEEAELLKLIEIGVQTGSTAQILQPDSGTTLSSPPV

Structure (SMILES) | IC50 (VEGFR2) | IC50 [1] | number of tubes formed in the fibrin gel (score) at 0.01 μM [2] | number of tubes formed in the fibrin gel (score) at 0.1 μM [2] | number of tubes formed in the fibrin gel (score) at 1.0 μM [2]
CCNC(=O)n1ccc2cc(Oc3ncnc4[nH]c(-c5ccc(O)cc5)cc34)ccc21 [Example 178, 5-[6-(4-Hydroxyphenyl)-7H-pyrrolo[2,3-d]pyrimidin-4-yloxy]indole-1-carboxylic ethylamide] | 0.012 µM |  |  |  | 
NC(=O)c1cc2c(Oc3ccc(NC(=O)NC4CC4)c(F)c3)ccnc2cc1OCCN1CCOCC1 [Example 375, 4-(4-(Cyclopropylaminocarbonyl)amino-3-fluorophenoxy)-7-(2-(4-morpholino)ethoxy)-6-quinolinecarboxamide] | 0.016 µM |  |  |  | 
O=C(CCCN1CCC(O)CC1)Nc1cc(Oc2ccc3c(ccn3C(=O)NC3CC3)c2)ccn1 [Example 187, N1-Cyclopropyl-5-[(2-{[4-(4-hydroxypiperidino)butanoyl]amino}-4-pyridyl)oxy]-1H-1-indolecarboxamide] | 0.014 µM |  |  |  | 
CCOC(=O)/C=C/c1c(Oc2ccc(NC(=O)Nc3ccc(F)cc3)cc2)ccnc1NC(=O)C1CC1 [Example 184, Ethyl(E)-3-[2-[(cyclopropylcarbonyl)amino]-4-(4-{[(4-fluoroanilino)carbonyl]amino}phenoxy)-3-pyridyl]-2-propenoate] | 0.059 µM |  |  |  | 
COc1cc2nccc(Oc3ccc(NC(=O)Nc4ccc(F)cc4F)cc3)c2cc1C#N [Example 36, N-(4-(6-Cyano-7-methoxy-4-quinolyl)oxyphenyl)-N′-(2,4-difluorophenyl)urea] | 0.014 µM |  |  |  | 
O=C(Nc1ccc(Oc2ccnc(NC(=O)C3CC3)c2)cc1Cl)NC1CC1 [Example 208] | 0.0092 µM |  |  |  | 
COc1cc2nccc(Oc3ccc(NC(=O)NC4CC4)c(Cl)c3)c2cc1C(=O)NCC(N)=O [Example 449, N6-(2-Amino-2-oxoethyl)-4-(3-chloro-4-(((cyclopropylamino)carbonyl)amino)phenoxy)-7-methoxy-6-quinolinecarboxamide] | 0.0022 µM |  |  |  | 
COCCOc1cc2nccc(Sc3ccc(NC(=O)Nc4nccs4)s3)c2cc1C#N [Example 252, 1-{5-[6-Cyano-7-(2-methoxyethoxy)-quinolin-4-ylsulfanyl]-thiophen-2-yl}-3-(thiazol-2-yl)urea] | 0.031 µM |  |  |  | 
COCCOc1cc2nccc(Oc3ccc(NC(=O)Nc4cccc(S(C)(=O)=O)c4)c(F)c3)c2cc1C#N [Example 34, N-(4-(6-Cyano-7-(2-methoxyethoxy)-4-quinolyl)oxy-2-fluorophenyl)-N′-(3-(methylsulfonyl)phenyl)urea] | 0.0034 µM |  |  |  | 
COCCOc1cc2nccc(Oc3ccc(NC(=O)NC4CC4)c(Cl)c3)c2cc1C#N [Example 262] | 0.0095 µM |  |  |  | 
COCCOc1cc2nccc(Sc3ccc(NC(=O)Nc4ccc(C)cc4)s3)c2cc1C#N [Example 259, 1-{5-[6-Cyano-7-(2-methoxyethoxy)quinolin-4-ylsulfanyl]thiophen-2-yl}-3-(para-tolyl)urea] | 0.016 µM |  |  |  | 
COc1cc2nccc(Oc3ccc(N(C)C(=O)NC4CC4)cc3)c2cc1C(N)=O [Example 350, 4-(4-(Cyclopropylaminocarbonyl)-4-methylaminophenoxy)-7-methoxy-6-quinolinecarboxamide] | 0.043 µM |  |  |  | 
CCN1CCN(CCCOc2cc3nccc(Oc4ccc(NC(=O)Nc5ccc(OC)cc5)cc4)c3cc2C#N)CC1 [Example 53, N-(4-(6-Cyano-7-(3-(1-(4-ethyl)piperazino)propoxy)-4-quinolyl)oxyphenyl)-N′-(4-methoxyphenyl)urea] |  | 0.0099 µM | +++ | +/− | −
CN1CCC(COc2cc3nccc(Oc4ccc(NC(=O)NC5CC5)c(Cl)c4)c3cc2C#N)CC1 [Example 422, N-(2-Chloro-4-((6-cyano-7-((1-methyl-4-piperidyl)methoxy)-4-quinolyl)oxy)phenyl)-N′-cyclopropylurea] |  | 0.0048 µM | + | − | −
CCN(CC)CCCOc1cc2nccc(Oc3ccc4c(ccn4C(=O)NC4CC4)c3)c2cc1C#N [Example 298, 5-[6-Cyano-7-(3-diethylaminopropoxy)quinolin-4-yloxy]indole-1-carboxylic acid cyclopropylamide] |  | 0.0007 µM | +/− | − | −
N#Cc1cc2c(Oc3ccc(NC(=O)Nc4ccc(F)cc4F)c(F)c3)ccnc2cc1OCc1ccccc1 [Example 81, N-(4-(6-Cyano-7-benzyloxy-4-quinolyl)oxy-2-fluorophenyl)-N′-(2,4-difluorophenyl)urea] |  | 0.0018 µM | ++ | − | −
